Test systems include HCT-15 colon; UACC-62 melanoma; TK-10 renal; K-562 leukemia; OVCAR-4 ovarian; OVCAR-8 ovarian; CCRF-CEM leukemia; NCI-H226 lung; SK-MEL-2 melanoma; SNB-19 CNS.
Holding throughout (assay): inhibition of tumour cell growth, NCI panel, 48 h

In PubChem BioAssay (NCI) one finds TGI and GI50 data, which are given here for nine compounds.

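The compound was tested at five concentrations on cells cultured in 96-well plates, with a 48-hour exposure period. Abbreviation: GI50, concentration required for 50% inhibition of growth. TGI marks complete inhibition of growth.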

As to `O=C(O)Cc1ccc(N=Nc2c(O)c(C(=O)O)cc3ccccc23)cc1`, the TGI with HCT-15 colon, with UACC-62 melanoma, in the experiment on TK-10 renal, in the experiment on K-562 leukemia, in the experiment with OVCAR-4 ovarian and with OVCAR-8 ovarian was more than 100 µM throughout. The TGI with CCRF-CEM leukemia, with NCI-H226 lung, in the experiment with SK-MEL-2 melanoma and in the experiment on SNB-19 CNS was more than 100 µM in each case.
In the case of `CC1(C)CCC(C)(C)c2cc(NC(=O)c3ccc(C(=O)O)cc3)ccc21`, the TGI in the experiment with HCT-15 colon was more than 64 µM; in the experiment on UACC-62 melanoma, 39.4 µM; in the experiment on TK-10 renal it was 85.3 µM; with K-562 leukemia it was more than 100 µM; in the experiment on OVCAR-4 ovarian it was more than 100 µM; in the experiment on OVCAR-8 ovarian it was more than 100 µM. Also, the TGI is more than 31.6 µM in the experiment with CCRF-CEM leukemia, more than 79.5 µM in the experiment on NCI-H226 lung, more than 60.5 µM in the experiment with SK-MEL-2 melanoma and 99.3 µM with SNB-19 CNS.
Regarding `COC(=O)c1oc2c(C(=O)/C=C/c3ccc(OC)cc3)c(OCCN3CCOCC3)ccc2c1C`, the GI50 in the experiment on HCT-15 colon was 1.46 µM; in the experiment with UACC-62 melanoma it was 1.55 µM; in the experiment with TK-10 renal, 3.31 µM; in the experiment with K-562 leukemia it was 1.44 µM; with OVCAR-4 ovarian, 2.48 µM; with OVCAR-8 ovarian, 1.8 µM. Moreover, the GI50 in the experiment on CCRF-CEM leukemia was 0.395 µM; in the experiment on NCI-H226 lung, 1.59 µM; in the experiment with SK-MEL-2 melanoma, 1.32 µM; in the experiment with SNB-19 CNS it was 1.65 µM. Besides, the TGI in the experiment with HCT-15 colon is 3.12 µM; in the experiment with UACC-62 melanoma, 3.19 µM; in the experiment with TK-10 renal, 11.9 µM; with K-562 leukemia it was 4.82 µM; in the experiment on OVCAR-4 ovarian, more than 44.2 µM; with OVCAR-8 ovarian, 4.7 µM. Further, the TGI in the experiment on CCRF-CEM leukemia came to 2.53 µM; with NCI-H226 lung, 3.51 µM; in the experiment with SK-MEL-2 melanoma, 3.15 µM; with SNB-19 CNS it was 4.15 µM.
With `Oc1ccccc1/C=N\NC(=S)N/N=C/c1ccccc1O`, the GI50 in the experiment with HCT-15 colon was 0.589 µM; in the experiment with UACC-62 melanoma, 1.23 µM; with TK-10 renal it was 4.62 µM; in the experiment with K-562 leukemia, 1.59 µM; with OVCAR-4 ovarian it was 0.64 µM; with OVCAR-8 ovarian, 2.34 µM. Further, the GI50 was 0.648 µM in the experiment with CCRF-CEM leukemia, 2.26 µM in the experiment on NCI-H226 lung, 13.4 µM with SK-MEL-2 melanoma and 2.94 µM with SNB-19 CNS. For the same compound, the TGI is more than 100 µM in the experiment with HCT-15 colon; 7.56 µM in the experiment with UACC-62 melanoma; 53.3 µM with TK-10 renal; more than 100 µM with K-562 leukemia; 46.7 µM with OVCAR-4 ovarian; 51.1 µM in the experiment on OVCAR-8 ovarian. Besides, the TGI was more than 100 µM in the experiment on CCRF-CEM leukemia, more than 100 µM in the experiment on NCI-H226 lung, 55.9 µM in the experiment on SK-MEL-2 melanoma and more than 100 µM with SNB-19 CNS.
As for `CC(C)C(=O)c1c(C(F)(F)F)n([O-])c2ccccc2[n+]1=O`, the GI50 with HCT-15 colon is 2.31 µM; with UACC-62 melanoma, 1.59 µM; in the experiment with TK-10 renal it was 0.59 µM; in the experiment on K-562 leukemia, 0.508 µM; in the experiment on OVCAR-4 ovarian, 4.47 µM; with OVCAR-8 ovarian, 2.14 µM. In addition, the GI50 was 1.57 µM with CCRF-CEM leukemia, 1.86 µM in the experiment on NCI-H226 lung, 2.01 µM with SK-MEL-2 melanoma and 3.51 µM in the experiment with SNB-19 CNS. In addition, the TGI with HCT-15 colon was more than 27.1 µM; in the experiment with UACC-62 melanoma, 3.44 µM; in the experiment with TK-10 renal it was 2.07 µM; with K-562 leukemia, more than 27.1 µM; with OVCAR-4 ovarian, 18.8 µM; with OVCAR-8 ovarian, more than 20.5 µM. Further, the TGI was found to be 9.83 µM in the experiment with CCRF-CEM leukemia, 5.27 µM in the experiment with NCI-H226 lung, 5.58 µM in the experiment with SK-MEL-2 melanoma and 25.8 µM with SNB-19 CNS.
On to `Cc1[nH]nc2ncc(C(=O)N3CCC[C@H]3c3ccc(Cl)cc3)cc12`, for which the GI50 in the experiment with HCT-15 colon is 58.3 µM; in the experiment on UACC-62 melanoma, 44.1 µM; in the experiment with TK-10 renal, 94.2 µM; with K-562 leukemia it was 37.1 µM; in the experiment with OVCAR-4 ovarian, 96.6 µM; with OVCAR-8 ovarian, more than 100 µM. Moreover, the GI50 in the experiment with CCRF-CEM leukemia is 36.1 µM; in the experiment on NCI-H226 lung, 64.1 µM; in the experiment on SK-MEL-2 melanoma, more than 100 µM; in the experiment with SNB-19 CNS, more than 100 µM. Moreover, the TGI with HCT-15 colon, in the experiment on UACC-62 melanoma, in the experiment on TK-10 renal, with K-562 leukemia, in the experiment with OVCAR-4 ovarian and in the experiment on OVCAR-8 ovarian was more than 100 µM in each case. Also, the TGI with CCRF-CEM leukemia, in the experiment with NCI-H226 lung, with SK-MEL-2 melanoma and with SNB-19 CNS was more than 100 µM each time.
For `CCC1(c2ccc(N)cc2)CCC(=O)NC1=O` (stereo not given), the TGI is more than 5000 µM in the experiment with HCT-15 colon; more than 4510 µM in the experiment with UACC-62 melanoma; 4890 µM in the experiment with TK-10 renal; more than 5000 µM in the experiment with K-562 leukemia; 4940 µM in the experiment on OVCAR-4 ovarian; more than 5000 µM with OVCAR-8 ovarian. Also, the TGI with CCRF-CEM leukemia was more than 1990 µM; in the experiment on NCI-H226 lung, more than 4820 µM; with SK-MEL-2 melanoma, more than 5000 µM; in the experiment on SNB-19 CNS, more than 5000 µM.
As to `C=C1C(=O)O[C@H]2[C@H]1CC/C(CNC(=O)/C=C/c1ccccc1F)=C\CC[C@@]1(C)O[C@@H]21`, the GI50 in the experiment on HCT-15 colon is 1.01 µM; with UACC-62 melanoma, 1.47 µM; in the experiment on TK-10 renal it was 1.66 µM; in the experiment on K-562 leukemia it was 0.577 µM; in the experiment on OVCAR-4 ovarian, 1.66 µM; with OVCAR-8 ovarian it was 2.95 µM. Further, the GI50 with CCRF-CEM leukemia is 0.416 µM; in the experiment on NCI-H226 lung, 2.42 µM; in the experiment with SK-MEL-2 melanoma it was 1.7 µM; with SNB-19 CNS, 3.83 µM. In addition, the TGI with HCT-15 colon stood at 2.49 µM; in the experiment on UACC-62 melanoma, 2.94 µM; in the experiment on TK-10 renal it was 3.25 µM; in the experiment on K-562 leukemia, 7.45 µM; in the experiment with OVCAR-4 ovarian, 4.57 µM; in the experiment with OVCAR-8 ovarian it was 11.8 µM. The TGI came to 2.92 µM in the experiment with CCRF-CEM leukemia, 6.94 µM in the experiment on NCI-H226 lung, 3.52 µM in the experiment with SK-MEL-2 melanoma and 14.4 µM in the experiment with SNB-19 CNS.
On to `COc1cc(O)c2c(c1)C(=O)C1=C(C2=O)C(O)C[C@@](C)(O)C1` (stereo not given in full), for which the TGI with HCT-15 colon amounted to 3.61 µM; in the experiment with UACC-62 melanoma, 3.1 µM; with TK-10 renal, 6.14 µM; with K-562 leukemia, 2.46 µM; with OVCAR-4 ovarian it was 3.01 µM; with OVCAR-8 ovarian, 6.15 µM. In addition, the TGI in the experiment on CCRF-CEM leukemia was more than 24.9 µM; with NCI-H226 lung, 13.2 µM; with SK-MEL-2 melanoma, 5.05 µM; with SNB-19 CNS, 14.1 µM.
